The compounds below were run against c-SRC (h) (Homo sapiens, UniProt P12931) (assay: Src Kinase Assay (33P-ATP filter-binding, Cdc2 peptide substrate)). Details: compound at 10 μM; c-SRC (h) 5-10 mU, 40 minutes at room temperature.
c-SRC (h), sequence (P12931 whole entry): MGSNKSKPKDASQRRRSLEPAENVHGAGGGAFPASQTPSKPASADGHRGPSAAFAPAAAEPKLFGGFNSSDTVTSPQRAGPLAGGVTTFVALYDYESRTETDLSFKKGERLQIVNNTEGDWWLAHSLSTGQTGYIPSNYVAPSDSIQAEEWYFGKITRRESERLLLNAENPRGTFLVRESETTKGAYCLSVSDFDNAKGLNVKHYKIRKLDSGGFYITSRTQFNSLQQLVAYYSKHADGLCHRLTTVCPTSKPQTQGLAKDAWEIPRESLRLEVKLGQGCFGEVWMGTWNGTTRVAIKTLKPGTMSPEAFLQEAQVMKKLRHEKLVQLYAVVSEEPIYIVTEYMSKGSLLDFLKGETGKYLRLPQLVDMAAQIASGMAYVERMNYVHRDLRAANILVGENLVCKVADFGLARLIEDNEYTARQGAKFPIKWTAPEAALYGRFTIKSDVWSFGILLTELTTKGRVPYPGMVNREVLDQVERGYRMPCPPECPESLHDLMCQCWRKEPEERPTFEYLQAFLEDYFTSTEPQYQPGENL
Format: biochemical
Procedure: This example illustrated Src Kinase Assays. Briefly, in a final reaction volume of 25 μL, c-SRC (h) (5-10 mU) is incubated with 8 mM MOPS pH 7.0, 0.2 mM EDTA, 250 μM KVEKIGEGTYGVVYK (Cdc2 peptide), 10 mM MgAcetate and [g-33P-ATP] (specific activity approx. 500 cpm/pmol, concentration as required). The reaction is initiated by the addition of the MgATP mix. After incubation for 40 minutes at room temperature, the reaction is stopped by the addition of 5 μL of a 3% phosphoric acid solution. 10 μL of the reaction is then spotted onto a P30 filtermat and washed three times for 5 minutes in 75 mM phosphoric acid and once in methanol prior to drying and scintillation counting.
In the case of `CCc1nc(NCCO)nc(Nc2ncc(C(=O)Nc3c(C)cccc3Cl)s2)n1` [Example 27], the inhibition at 10 µM is reported as over 90%. `Cc1nc(Nc2ncc(C(=O)Nc3c(C)cccc3Cl)s2)nc(N2CCN(C)CC2)n1` [Example 7] was tested, and the inhibition at 10 µM was over 90%. `CCc1nc(NCCN(C)C)nc(Nc2ncc(C(=O)Nc3c(C)cc(C)cc3C)s2)n1` [Example 75] gave an inhibition at 10 µM of over 90%. Work on `CCc1nc(NCCCN2CCOCC2)nc(Nc2ncc(C(=O)Nc3c(C)cccc3Cl)s2)n1` [Example 28] yielded an inhibition at 10 µM of over 90%. In the case of `Cc1cccc(Cl)c1NC(=O)Cc1cnc(Nc2ncnc(N3CCN(C)CC3)n2)s1` [Example 92], the inhibition at 10 µM is reported as under 50%. `CCc1nc(NCCN(C)C)nc(Nc2ncc(C(=O)NC3CC3)s2)n1` [Example 63] was tested, and the inhibition at 10 µM was under 50%. `Cc1cccc(Cl)c1NC(=O)Cc1cc(Nc2ncnc(N3CCN(C)CC3)n2)n[nH]1` [Example 106] gave an inhibition at 10 µM of under 50%. Compound `Cc1cccc(Cl)c1NC(=O)c1cnc(Nc2nc(CC(C)C)nc(N3CCN(CCO)CC3)n2)s1` [Example 34] has an inhibition at 10 µM of over 90%. `O=C(Cc1cnc(Nc2ncnc(N3CCCCC3)n2)s1)Nc1cccc(F)c1` [Example 89] gave an inhibition at 10 µM of under 50%. Work on `CCc1nc(Nc2ncc(C(=O)Nc3c(C)cccc3Cl)s2)nc(N2CCOCC2)n1` [Example 25] yielded an inhibition at 10 µM of over 90%. With `CN(C)CCCOc1ncnc(Nc2cc(CC(=O)Nc3cccc(F)c3)[nH]n2)n1` [Example 105] the inhibition at 10 µM was under 50%. `CCc1nc(Nc2ncc(C(=O)Nc3c(C)cccc3Cl)s2)nc(N2CCN(CCO)CC2)n1` [Example 23] gave an inhibition at 10 µM of over 90%. Compound `CN(C)CCN(C)c1ncnc(Nc2cc(CC(=O)Nc3cccc(F)c3)[nH]n2)n1` [Example 110] has an inhibition at 10 µM of under 50%. Work on `Cc1cccc(Cl)c1NC(=O)c1cnc(Nc2nc(-c3ccccc3)nc(N3CCN(CCO)CC3)n2)s1` [Example 31] yielded an inhibition at 10 µM of over 90%. For `CN1CCN(c2ncnc(Nc3cc(CC(=O)Nc4cccc(F)c4)[nH]n3)n2)CC1` [Example 104], the inhibition at 10 µM was under 50%. In the case of `CN1CCN(c2ncnc(Nc3cc(CC(=O)NCc4ccc(F)cc4)[nH]n3)n2)CC1` [Example 108], the inhibition at 10 µM is reported as under 50%. `CCc1nc(NCCN(C)C)nc(Nc2ncc(C(=O)Nc3c(C)cccc3Cl)s2)n1` [Example 26] gave an inhibition at 10 µM of over 90%. With `Cc1nc(Nc2ncc(C(=O)Nc3c(C)cccc3Cl)s2)nc(N2CCN(c3cccc(C(F)(F)F)c3)CC2)n1` [Example 18] the inhibition at 10 µM was over 90%. Compound `Cc1nc(Nc2ncc(C(=O)Nc3c(C)cccc3Cl)s2)nc(N2CCNCC2)n1` [Example 13] has an inhibition at 10 µM of over 90%. Work on `O=C(Cc1cc(Nc2ncnc(Nc3ccccc3)n2)n[nH]1)Nc1cccc(F)c1` [Example 113] yielded an inhibition at 10 µM of under 50%. `CCc1nc(NCCN(C)C)nc(Nc2ncc(C(=O)NC(C)C)s2)n1` [Example 67] gave an inhibition at 10 µM of under 50%. With `CCc1nc(NCCN(C)C)nc(Nc2ncc(C(=O)Nc3ccccc3)s2)n1` [Example 79] the inhibition at 10 µM was 50 to 90%. With `Cc1nc(Nc2ncc(C(=O)Nc3c(C)cccc3Cl)s2)nc(N2CCC(CO)CC2)n1` [Example 11] the inhibition at 10 µM was over 90%. Work on `CCc1nc(NCCN(C)C)nc(Nc2ncc(C(=O)Nc3c(C)cccc3C)s2)n1` [Example 71] yielded an inhibition at 10 µM of over 90%. Work on `COCC(C)Nc1ncnc(Nc2cc(CC(=O)Nc3cccc(F)c3)[nH]n2)n1` (centres unmarked) [Example 111] yielded an inhibition at 10 µM of under 50%. For `Cc1nc(Nc2ncc(C(=O)Nc3c(C)cccc3Cl)s2)nc(N2CCN(CCC#N)CC2)n1` [Example 14], the inhibition at 10 µM was over 90%. For `Cc1nc(Nc2ncc(C(=O)Nc3c(C)cccc3Cl)s2)nc(N2CCNC(=O)C2)n1` [Example 19], the inhibition at 10 µM was over 90%. For `CCc1nc(Nc2ncc(C(=O)Nc3c(C)cccc3Cl)n2C)nc(N2CCN(C)CC2)n1` [Example 59], the inhibition at 10 µM was over 90%. Compound `CCc1nc(Nc2ncc(CC(=O)Nc3c(C)cccc3Cl)s2)nc(N2CCN(CCO)CC2)n1` [Example 93] has an inhibition at 10 µM of under 50%. For `Cc1nc(Nc2ncc(C(=O)Nc3c(C)cccc3Cl)o2)nc(N2CCNCC2)n1` [Example 38], the inhibition at 10 µM was over 90%. Work on `Cc1cccc(Cl)c1NC(=O)Cc1cc(Nc2ncnc(OCCCN(C)C)n2)n[nH]1` [Example 107] yielded an inhibition at 10 µM of under 50%. `CCc1nc(Nc2ncc(C(=O)Nc3c(C)cccc3Cl)o2)nc(N2CCN(CCO)CC2)n1` [Example 40] showed an inhibition at 10 µM of over 90%. `Cc1nc(Nc2ncc(C(=O)Nc3c(C)cccc3Cl)s2)nc(N2CCN(c3ccccc3)CC2)n1` [Example 17] gave an inhibition at 10 µM of over 90%. With `Cc1nc(Nc2ncc(C(=O)Nc3c(C)cccc3Cl)s2)nc(N2CCN(CCO)CC2)n1` [Example 5] the inhibition at 10 µM was over 90%. `Cc1nc(Nc2ncc(C(=O)Nc3c(C)cccc3Cl)s2)nc(N2CCN(Cc3ccncc3)CC2)n1` [Example 10] gave an inhibition at 10 µM of over 90%. Compound `CCc1nc(Nc2ncc(C(=O)Nc3c(C)cccc3Cl)s2)nc(N2CCN(c3ccncc3)CC2)n1` [Example 24] has an inhibition at 10 µM of over 90%. For `Cc1nc(NCCCn2ccnc2)nc(Nc2ncc(C(=O)Nc3c(C)cccc3Cl)s2)n1` [Example 20], the inhibition at 10 µM was over 90%. For `CCc1nc(NCCN(CC)CC)nc(Nc2ncc(C(=O)Nc3c(C)cccc3Cl)s2)n1` [Example 94], the inhibition at 10 µM was over 90%. `CN1CCN(c2ncnc(Nc3ncc(CC(=O)Nc4cccc(F)c4)s3)n2)CC1` [Example 88] was tested, and the inhibition at 10 µM was under 50%. `CCc1nc(Nc2nnc(C(=O)Nc3c(C)cccc3Cl)o2)nc(N2CCN(CCO)CC2)n1` [Example 52] gave an inhibition at 10 µM of under 50%. With `CN(C)CCCOc1ncnc(Nc2cc(CC(=O)NCc3ccc(F)cc3)[nH]n2)n1` [Example 109] the inhibition at 10 µM was under 50%.
